In patent US12702654B2, “Compositions and methods for treating homocystinuria and other conditions using polyamines” (THE REGENTS OF THE UNIVERSITY OF COLORADO, priority 2020, dated 2026):
Entries after “also recorded” stand apart in the source; their conditions may differ.

Legend:
Assay type in all cases: in vivo, mouse
MAT1A = test: Western blotting of hepatic MAT1A expression; details: HO HCU mice, 30 g/l in drinking water ad libitum, one week
Method: To investigate the effects of these treatments upon the hepatic regulatory changes in enzyme expression induced by HCU, the human transgenic HO mouse model of HCU was used. In brief, experimental groups consisting of 8 HO mice on a C57BL/6J background and 8 C57BL/6J WT littermate control mice bred in house were used. Mice in both groups were male and aged between 3 and 4 months. Except where otherwise stated, all mice were maintained on standard chow. All diets were administered using a paired-feeding design to ensure isocaloric intake between all experimental groups and body weights were measured once per week. There was no significant difference in body weight between mice in any of the experimental groups. Betaine and taurine were in this example, both administered by dissolving these compounds in drinking water at 30 g/l ([…] 3% w/v) and were supplied ad libitum for one week. Treatment water was replenished twice per week.
These observations are the first to report betaine and taurine acting to regulate expression of these processes. Therefore, this observation supports that taurine alone or in combination with betaine and other treatments for genetic homocystinuria are viable options for avoiding dietary restraints and treating these conditions.

HO HCU mice [1] = test: Hepatic metabolomic analysis / hepatic 5-methylTHF in HO HCU mice
Source text: As illustrated in one example, see FIG. 2, HCU (HO) induced a significant accumulation of hepatic 5-methyl-THF which by sequestering one carbon units had the potential to decrease the available pool of THF available to the betaine pathway for lowering Hcy. FIG. 2 illustrates an example of hepatic metabolomic analysis of HO and WT controls compared to an HO mouse treated with betaine. Comparative hepatic metabolomic analysis of HO mice and WT controls illustrated about a 10-fold accumulation in the MTHFR product 5-MeTHF. Betaine treatment alone reduced 5-MeTHF by about 15-25%. Data illustrated in FIG. 2 was derived from the livers of 8 (4 male, 4 female) individual HO or WT or HO Betaine mice per group. Betaine was given at 2% w/v in drinking water given ad libitum. P<0.0001 vs WT.
A comparative reference data set was generated for these mice by examining plasma levels of tHcy, methionine, cysteine, serine, glycine, dimethylglycine, methylglycine (MG, SAM and SAH). In brief, determination of plasma levels of amino acids relevant to the methionine cycle were determined using methods similar to those described in Stabler et al., Blood. 81 (1993) 3404-3413, incorporated in its entirety herein. Determination of hepatic 5-methylTHF was performed by liquid chromatography-tandem mass spectrometry using methods similar to those described in Witham et al., PLoS One. 8 (2013) e77923, incorporated in its entirety herein. The global metabolomic analysis of methionine and folate cycle related metabolites was carried out by Metabolon, Inc. Briefly, sample preparation was performed utilizing the automated MicroLab STAR® system. Sample preparation was performed using a proprietary series of organic and aqueous extractions to remove the protein fraction while allowing maximum recovery of small molecules. The resulting extract was divided into two fractions: one for analysis by liquid chromatography and one for analysis by gas chromatography. Each sample was then frozen and dried under vacuum. The LC/mass spectrometer portion of the platform was based on a Waters ACQUITY UPLC and a Thermo-Finnigan LTQ mass spectrometer, which consisted of an electrospray ionization source and linear ion-trap mass analyzer. Samples were analyzed on a Thermo-Finnigan Trace DSQ fast-scanning single-quadrupole mass spectrometer using electron impact ionization. Identification of known chemical entities was based on comparison to library entries of authenticated standards. Tissue polyamines putrescine, spermidine and spermine and 5-methylthioadenosine (MTA) were determined by liquid chromatography-tandem mass spectrometry using methods similar to those described in Stevens et al., J Chromatogr A 1217 (2010) 3282-3288, incorporated in its entirety herein.

HO HCU mice [2] = test: Tail bleeding time / hypercoagulative phenotype in HO HCU mice
Method: In another exemplary method, effect of polyamines (e.g. spermidine and spermine) on the hypercoagulative phenotype induced by HCU was assessed which is a measure of treatment for genetic HCU where rapid coagulation is a side effect of these conditions. In brief, mice containing both the human CBS transgene and no functional copy of the mouse equivalent gene were identified by PCR from the litters of progeny of 11181×MKO^+/− F1 mice backcrossed to MKO^+/− mice. These mice were designated as “human only” (HO) mice and used as a human model of HCU. […] In order to further investigate the possible therapeutic potential of polyamine (e.g. spermidine and spermine) therapy in HCU, WT and HO HCU mice were given either: […]; […] in drinking water given ad libitum; or drinking water (untreated, control). After one week, tail bleeding times were determined for untreated wild type (WT) control B6 mice and HO HCU mice from all treatment groups.

[3] = HO HCU mice, one week of betaine treatment

## C[N+](C)(C)CC(=O)O [betaine, N,N,N-trimethylglycine]
MAT1A
  hepatic MAT1a expression: induced expression
HO HCU mice [1]; [3]
  HCU-induced decrease in hepatic N-acetylcysteine: reversed
  HCU-induced decrease in hepatic cysteine: reversed
  hepatic N-acetylserine: Neither of these metabolites were significantly altered
  hepatic SAH: did not change significantly
  hepatic SAM: did not change significantly
  hepatic methionine compared to untreated HO mice: no detectable effect
  hepatic serine: Neither of these metabolites were significantly altered
  increase of hepatic DMG: 3 to 4 fold
  increase of hepatic MG: 3 to 4 fold
  lowering of hepatic N-acetlymethionine compared to untreated HO HCU mice: 23%
  lowering of hepatic tHcy: approximately 20%
HO HCU mice [1]; HO mice, betaine 2% w/v in drinking water ad libitum
  reduction of hepatic 5-MeTHF: 15-25%
HO HCU mice [2]; betaine treatment (one week)
  hypercoagulative phenotype: significant amelioration of the hypercoagulative phenotype; also recorded: responded to betaine treatment
HO HCU mice [2]; prolonged betaine treatment
  coagulation phenotype: reversion to a hypercoagulative phenotype
